# Test results reported in patent publication US20060247258A1, “Use of levocetirizine for the treatment of persistent allergic rhinitis” (UCB Farchim S.A., priority 2002, published 2006).
# Where a name gives a salt, the structure may show the parent alone.
# Assays:
# Type in all cases: in vivo, adult patients
# [1] = system: persistent allergic rhinitis; test: Clinical study in persistent allergic rhinitis: safety of long-term treatment; conditions: 5 mg once per day; 6 month treatment
# Source text: The aim of the study relative to the clinical effect of levocetirizine dihydrochloride was to establish on the intention to treat (ITT population) whether a 6 month levocetirizine dihydrochloride treatment can improve the quality of life and clinical symptoms from adult patients suffering from persistent allergic rhinitis, when compared to placebo. For clinical symptoms, it was considered that a 1 point score reduction is clinically relevant. For health-related quality of life, it was considered that a 0.36 point score reduction is relevant. Secondary parameters of efficacy included different durations of treatment, different symptoms, different quality of life questionnaires, the incidence of co-morbidities suspected to be linked to allergic rhinitis and pharmaco-economic variables. The safety of this long-term treatment with levocetirizine dihydrochloride has also been evaluated.
# At each of the eight visits, diary book entries (T5SS, RQLQ, SF-36, indirect cost pharmaco-economic parameters, concomitant medication, outpatient consultations and adverse events) were verified and transferred into the Clinical Record Form and direct cost pharmaco-economic parameters were recorded. Patients underwent a physical examination, including the measurement of vital signs. […]
# Adverse events were recorded by the patients on diary cards and discussed with the investigator at each visit. […]
# [2] = system: persistent allergic rhinitis; test: Clinical study in persistent allergic rhinitis: Rhinoconjunctivitis Quality of Life Questionnaire (RQLQ)
# Source text: (§1) For clinical symptoms, it was considered that a 1 point score reduction is clinically relevant. For health-related quality of life, it was considered that a 0.36 point score reduction is relevant. Secondary parameters of efficacy included different durations of treatment, different symptoms, different quality of life questionnaires, the incidence of co-morbidities suspected to be linked to allergic rhinitis and pharmaco-economic variables.
# (§2) The target population of this example consisted of adults aged more than 18 years suffering from persistent allergic rhinitis [WHO Initiative on Allergic Rhinitis and its Impact on Asthma (ARIA), 2000, pages S147-S149]. To be enrolled, the subjects needed to have sufficient rhinitis symptoms during the selection period. Excluded were patients with ENT or eye infection during the 2-weeks preceding initial visit.
# (§3) The study was a prospective, randomized, double blind, parallel group, and placebo-controlled study with levocetirizine dihydrochloride.
# (§4) The severity of clinical symptoms was rated by the T5SS (sneezing, rhinorrhea, nasal pruritus, ocular pruritus and nasal congestion) evaluated each by a score from 0 to 3. The impact on health related quality of life was measured using the Rhinoconjunctivitis Quality of Life Questionnaire (RQLQ) (E. JUNIPER and G. H. GUYAIT, Development and testing of a new measure of health status for clinical trials in rhinoconjunctivitis, Clinical and Experimental Allergy 1991; 21:77-83; E. JUNIPER, Measuring Health Related Quality of Life in rhinitis, J. Allergy Clin. Immunol. 1997; 99:S742-9).
# (§5) Study treatment lasted for 6 months. After the treatment period, patients entered a 1-week follow-up period.
# (§6) The primary end-point for efficacy was a decrease of the T5SS over the first 4 weeks of at least 1 unit of score. The primary end-point for quality of life was a decrease of RQLQ after 4 weeks of at least 0.36 unit of the total score.
# (§7) Secondary parameters of efficacy included the mean T5SS, the RQLQ and the SF-36 questionnaire at the different time points of the study, and the incidence and the duration of rescue medication over 6 months.
# (§8) Oral tablets of levocetirizine dihydrochloride (5 mg) and matching placebo, similar in appearance, shape and taste were used. The recommended study dosage was 1 tablet per day.
# Sample size was based on 40% relative improvement over placebo in the RQLQ questionnaire, assuming an improvement from baseline for placebo of 0.9. For this questionnaire this corresponds to a difference of 0.36 vs. placebo.
# [3] = system: persistent allergic rhinitis; test: Clinical study in persistent allergic rhinitis: Total 5 Symptoms Score (T5SS)
# Source text: as §1, §2, §3, §4, §5, §6, §7, §8
# [4] = system: persistent allergic rhinitis; test: Clinical study in persistent allergic rhinitis: individual rhinitis symptom scores (nasal congestion, sneezing, rhinorrhea, nasal pruritus, ocular pruritus); conditions: for Effect on nasal congestion / nasal obstruction (in words): long term treatment
# Source text: as §1, §2, §3, §4, §5
# Exploratory parameters of efficacy included the mean of each individual rhinitis score, each RQLQ domain and each scale of the SF-36 questionnaire at the different time points of the study, the Global Evaluation Scale after 4 weeks and 6 months, the incidence of co-morbidities suspected to be linked to allergic rhinitis and the pharmaco-economic direct and indirect costs over 6 months.
# as §8
# [5] = 5 mg once per day, 6 month treatment
# [6] = 5 mg oral tablet once per day, after first 4 weeks of treatment, ITT population
# [7] = 5 mg oral tablet once per day, over the first four weeks of treatment, ITT population
# [8] = 5 mg, 3 months, evaluated over the 24 hours, ITT population
# [9] = 5 mg, 4.5 months, evaluated over the 24 hours, ITT population
# [10] = 5 mg, 6 months, evaluated over the 24 hours, ITT population
# [11] = 5 mg, First 4 weeks, evaluated over the 24 hours, ITT population
# [12] = 5 mg, Week 1, evaluated over the 24 hours, ITT population
structure (smiles),measurement,setting,value
"O=C(O)COCCN1CCN([C@H](c2ccccc2)c2ccc(Cl)cc2)CC1 [Lctz, levocetirizine dihydrochloride]",Safety of long-term administration,[1],did not involve particular safety concerns
same,Duration of effect on quality of life,[2]; [5],has an effect on quality of life up to 6 months
same,"Change from baseline of the RQLQ Overall Score, Adjusted Mean (adjusted for baseline score and country)",[2]; [6],−1.49
same,"Change from baseline of the RQLQ Overall Score, Mean",[2]; [6],−1.50
same,"Change from baseline of the RQLQ Overall Score, Diff. vs. placebo (95% CI), placebo minus Lctz 5 mg","[2]; 5 mg oral tablet once per day, after first 4 weeks of treatment, ITT population, dihydrochloride",0.48
same,Duration of effect on rhinitis,[3]; [5],has an effect on rhinitis up to 6 months
same,Tachyphylaxis (need to adjust the dosing schedule),"[3]; 5 mg once per day, during 6 months",lack of tachyphylaxis
same,"Mean T5SS, Adjusted mean (adjusted for baseline score and country)",[3]; [7],5.43
same,"Mean T5SS, Mean (SD)",[3]; [7],5.53 (2.52)
same,"Mean T5SS, Diff. vs. placebo (95% CI), placebo minus Lctz 5 mg","[3]; 5 mg oral tablet once per day, over the first four weeks of treatment, ITT population, dihydrochloride",1.14
same,"Improvement of sneezing, rhinorrhea, nasal pruritus and ocular pruritus","[4]; 5 mg once per day, at all time points, vs. placebo",statistically significant improvement
same,Effect on nasal congestion / nasal obstruction (in words),"[4]; 5 mg once per day, listed as Levocetirizine, dihydrochloride",active on nasal obstruction after a long term treatment (equal or more than 3 months)
same,Effect on nasal congestion / nasal obstruction (in words),"[4]; 5 mg once per day, listed as levocetirizine dihydrochloride, dihydrochloride",has an effect on nasal congestion after 3 months
same,"Nasal congestion symptoms, Adjusted Mean",[4]; [8],1.16
same,"Nasal congestion symptoms, Mean (SD)",[4]; [8],1.22 (0.78)
same,"Nasal congestion symptoms, Diff. vs. (95% CI), placebo minus Lctz","[4]; 5 mg, 3 months, evaluated over the 24 hours, ITT population, dihydrochloride",0.15
same,"Nasal congestion symptoms, Adjusted Mean",[4]; [9],1.11
same,"Nasal congestion symptoms, Mean (SD)",[4]; [9],1.17 (0.77)
same,"Nasal congestion symptoms, Adjusted Mean",[4]; [10],1.08
same,"Nasal congestion symptoms, Mean (SD)",[4]; [10],1.13 (0.76)
same,"Nasal congestion symptoms, Adjusted Mean",[4]; [11],1.40
same,"Nasal congestion symptoms, Mean (SD)",[4]; [11],1.44 (0.78)
same,"Nasal congestion symptoms, Adjusted Mean",[4]; [12],1.58
same,"Nasal congestion symptoms, Mean (SD)",[4]; [12],1.61 (0.83)
